Test results reported in US20260285817A1, “CRYSTALLINE FORMS OF A 1H-1,2,3-TRIAZOLE-4-CARBOXYLIC ACID COMPOUND” (CANTERO THERAPEUTICS, INC., priority 2023, published 2026).
Entries after “also recorded” stand apart in the source; their conditions may differ. Where two headings read alike, the source gives them in different places.

Assays:
[1] = Critical water activity study, competitive slurry in THF/H2O at rt, XRPD
Protocol: Critical water activity (aw) study was performed for mono-sodium salt Form A (monohydrate), Form E (hemihydrate) and Form D (anhydrate) to investigate the form relationship. It was conducted via competitive slurry in THF/H2O with a series of aw (0~1) at rt. Specifically, ~10 mg staring material was suspended in 0.4 mL THF/H2O (aw of 0, 0.2, 0.4, 0.6, 0.8 and 1.0) at rt. After equilibrium for 2 hrs, collect the filtrates to the HPLC vials containing Form A and Form D with equivalent mass ratio. After stirring magnetically at rt for 1~2 days, collect the solids for XRPD analysis.

[2] = Dynamic vapor sorption (DVS) hygroscopicity of Form A; type: physicochemical
Protocol: In some embodiments, the crystalline form described herein is further characterized by a dynamic vapor sorption (DVS). In some embodiments, the DVS is recorded using a sample weight of a few milligrams (e.g., about 20 mg) on an ADVENTURE series DVS at 25° C. under nitrogen. In some embodiments, the sample is subjected to the cycle as follows: 1) ambient relative humidity (RH) to 90% RH at a rate of 10% RH and from 90% RH to 95% RH in a rate of 5% RH; 2) 95% RH to 90% RH at a rate of 5% RH and 90% RH to 0% RH at a rate of 10% RH; and 3) 0% RH to 90% RH at a rate of 10% RH and 90% RH to 95% RH in a rate of 5% RH.
Dynamic Vapor Sorption (DVS): Dynamic vapor sorption was performed with an ADVENTURE series DVS at 25° C. under nitrogen blow. Approximately 20 milligrams of material was used. Samples were analyzed using method below: • 1. Ambient relative humidity to 95% RH at 10% RH (5% from 90% RH to 95% RH) • 2. 95% RH to 0% RH at 10% RH (5% RH from 95% RH to 90% RH) • 3. 0% RH to 95% RH at 10% RH (5% RH from 90% RH to 95% RH)
To understand the hygroscopicity of Form A, dynamic vapor sorption (DVS) was employed to measure the mass change as a function of relative humidity at 25° C. Form A was equilibrated at ambient relative humidity before analysis.

[3] = 24-hr pH solubility and form stability in six pH buffers at 25° C.; type: physicochemical; conditions: for solubility at 24 h: aqueous buffer
Protocol: (§1) High Performance Liquid Chromatography (HPLC): HPLC of Agilent 1260 with DAD detector was employed to detect the purity and solubility, with the methods shown in Table 1.
After shaking at 100 rpm at 25° C. for 24 hrs, the suspensions were centrifuged. The solids were analyzed by XRPD for crystal form, and the filtrates of supernatants were analyzed by HPLC for solubility and by pH meter for pH value.

[4] = Solubility in water at various temperatures; type: physicochemical; conditions: for Final Form: XRPD
Protocol: as §1
Solubility in Water at various Temperature: Solubility test was conducted for Form A in water at various temperatures. Specifically, about 3~5 mg Form A sample was added to 1 mL water. After stirring at 750 rpm at desired temperatures (25/35/50/60/70° C.) for 1~2 hrs, solids were isolated for XRPD to check the crystal form and the supernatants were collected for a HPLC analysis to detect the solubility.

[5] = Solubility in 20% EtOH in water and 20% DMAc in water at room temperature; type: physicochemical; conditions: organic solvent or mixture, 20~60 mins
Protocol: as §1
Solubility in Various Solvents: Solubility of Form A was also measured in 20% EtOH in water and 20% DMAc in water at room temperature (rt). Specifically, about 3 mg Form A sample was added to 0.6 mL solvent.

Question: With `O=C([O-])c1nn[nH]c1Oc1ccc(-c2ccc(C3CC(F)(F)C3)cc2)cc1.[Na+]` as the molecule, how does the relative form stability ([1]; THF/H2O, aw of 0~0.8, rt) read?
Answer: more stable than monohydrate Form A and anhydrate Form D

Question: For `O.O=C([O-])c1nn[nH]c1Oc1ccc(-c2ccc(C3CC(F)(F)C3)cc2)cc1.[Na+]` [Form A, sodium 5-((4′-(3,3-difluorocyclobutyl)-[1,1′-biphenyl]-4-yl)oxy)-1H-1,2,3-triazole-4-carboxylate monohydrate], which water uptake ([2]; 25° C./80% RH compared to starting point (60% RH)) is on record?
Answer: negligible water uptake

Question: And the “weight gain, DVS cycle” value ([2]; 60% RH to 80% RH, 25° C.)?
Answer: less than 0.03%

Question: And the “weight loss, first dynamic vapor desorption cycle” value ([2]; 80% RH to 60% RH, 25° C.)?
Answer: less than 0.03%

Question: And the hygroscopicity ([2]; DVS, 25° C., monohydrate)?
Answer: non-hygroscopic; also recorded: non-hygroscopicity

Question: And the “form stability under humidity” value ([2]; broad humidity range, DVS 25° C.)?
Answer: good form stability

Question: What about the water lost ([2]; relative humidity below 10% RH, 25° C.) of the same molecule?
Answer: ~ 0.6%

Question: And the solubility at 24 h ([3]; pH 7.0 buffer, 25° C., read-out: Solubility)?
Answer: 55 µg/mL

Question: What about the solubility at 24 h ([3]; pH 8.0 buffer, 25° C., read-out: Solubility) of the same molecule?
Answer: 404 µg/mL

Question: And the solubility at 24 h ([3]; pH 10.0 buffer, 25° C., read-out: Solubility)?
Answer: 4830 µg/mL

Question: What about the “solubility” value ([3]; pH 2.0/4.0/6.0, 25° C.) of the same molecule?
Answer: limited solubility

Question: And the “Final pH (measured)” value ([3]; pH 2.0 buffer, 25° C.)?
Answer: pH 2.5

Question: And the solubility ([3]; pH 2.0 buffer, 25° C.)?
Answer: <LOD

Question: And the “Form Change” value ([3]; pH 2.0 buffer, 25° C., XRPD of solids)?
Answer: Yes

Question: And the “Form Change” value ([3]; pH 2.0~7.0, 25° C.)?
Answer: new diffractive peaks

Question: And the “Final pH (measured)” value ([3]; pH 4.0 buffer, 25° C.)?
Answer: pH 4.4

Question: And the solubility ([3]; pH 4.0 buffer, 25° C.)?
Answer: <LOD

Question: And the “Form Change” value ([3]; pH 4.0 buffer, 25° C., XRPD of solids)?
Answer: Yes

Question: What about the “Final pH (measured)” value ([3]; pH 6.0 buffer, 25° C.) of the same molecule?
Answer: pH 6.2

Question: And the solubility ([3]; pH 6.0 buffer, 25° C.)?
Answer: <LOD

Question: What about the “Form Change” value ([3]; pH 6.0 buffer, 25° C., XRPD of solids) of the same molecule?
Answer: Yes

Question: What about the “Final pH (measured)” value ([3]; pH 7.0 buffer, 25° C.) of the same molecule?
Answer: pH 7.1

Question: What about the “Form Change” value ([3]; pH 7.0 buffer, 25° C., XRPD of solids) of the same molecule?
Answer: Yes

Question: And the “Form Change” value ([3]; pH 8.0/10.0, 25° C.)?
Answer: no form change

Question: What about the “Final pH (measured)” value ([3]; pH 8.0 buffer, 25° C.) of the same molecule?
Answer: pH 7.4

Question: What about the “Form Change” value ([3]; pH 8.0 buffer, 25° C., XRPD of solids) of the same molecule?
Answer: No

Question: What about the “Final pH (measured)” value ([3]; pH 10.0 buffer, 25° C.) of the same molecule?
Answer: pH 8.4

Question: What about the “Form Change” value ([3]; pH 10.0 buffer, 25° C., XRPD of solids) of the same molecule?
Answer: No

Question: What about the solubility at 24 h ([3]; ph buffer, pH 2.0~10.0, 25° C., read-out: solubility as a function of pH) of the same molecule?
Answer: < 4800 µg/mL

Question: And the solubility ([4]; 25~70° C., read-out: solubility as a function of temperature)?
Answer: 1100 to 2300 µg/mL

Question: What about the solubility ([4]; 25° C., 1~2 hrs, read-out: Solubility) of the same molecule?
Answer: 1100 µg/mL

Question: And the “Final Form” value ([4]; 25° C.)?
Answer: Forms A + C

Question: What about the solubility ([4]; 35° C., 1~2 hrs, read-out: Solubility) of the same molecule?
Answer: 1300 µg/mL

Question: What about the solubility ([4]; 50° C., 1~2 hrs, read-out: Solubility) of the same molecule?
Answer: 1940 µg/mL

Question: And the solubility ([4]; 60° C., 1~2 hrs, read-out: Solubility)?
Answer: 1860 µg/mL

Question: What about the “Final Form” value ([4]; 60° C.) of the same molecule?
Answer: Forms A + C

Question: And the solubility ([4]; 70° C., 1~2 hrs, read-out: Solubility)?
Answer: 2320 µg/mL

Question: What about the “form transformation in water” value ([4]; various temperatures) of the same molecule?
Answer: partial conversion to Form C

Question: And the solubility ([5]; 20% DMAc in water)?
Answer: 3300 µg/mL

Question: And the solubility ([5]; 20% EtOH in water)?
Answer: 1900 µg/mL

Question: What about the relative form stability ([1]; water, aw of 1.0, rt) of the same molecule?
Answer: more stable than Form D
